The values that follow come from US8486939B2, “Pyrimidinyl and 1,3,5-triazinyl benzimidazoles and their use in cancer therapy” (Pathway Therapeutics Inc., priority 2009, dated 2013).

The test system of one series is human tumor xenografts. The conditions noted are these: mice with human tumor xenografts; cited from earlier work.
A further series deals with p110α/p85 (Homo sapiens, UniProt P42336). Briefly: Inhibition of isolated enzyme (lipid kinase assay, [γ33P]ATP, TLC). The class given is biochemical. Particulars: recombinant enzyme, 100 μM ATP, 1 hr room temperature, average of two experiments. The gist of the method:
(§1)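 Each recombinant p110/p85 enzyme (0.1 μg) was incubated with 10 μg L-α-phosphatidylinositol in Tris-HCl pH 7.4 buffer with NaCl and EDTA, 1% final DMSO, and was started with ATP mix (100 μM ATP, 5 mM MgCl2, [γ33P]ATP). Reactions ran 1 h at room temperature, and the lipids were extracted, TLC-separated and phosphorimaged. IC50 came from nine concentrations and is the mean of two experiments.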

In a further series the target is p110β/p85 (Homo sapiens, UniProt P42338). The series is described as above. It is filed as biochemical. Particulars: recombinant enzyme, 100 μM ATP, 1 hr room temperature, average of two experiments. The gist of the method: as §1
p110β/p85, sequence (P42338 whole entry, species assumed): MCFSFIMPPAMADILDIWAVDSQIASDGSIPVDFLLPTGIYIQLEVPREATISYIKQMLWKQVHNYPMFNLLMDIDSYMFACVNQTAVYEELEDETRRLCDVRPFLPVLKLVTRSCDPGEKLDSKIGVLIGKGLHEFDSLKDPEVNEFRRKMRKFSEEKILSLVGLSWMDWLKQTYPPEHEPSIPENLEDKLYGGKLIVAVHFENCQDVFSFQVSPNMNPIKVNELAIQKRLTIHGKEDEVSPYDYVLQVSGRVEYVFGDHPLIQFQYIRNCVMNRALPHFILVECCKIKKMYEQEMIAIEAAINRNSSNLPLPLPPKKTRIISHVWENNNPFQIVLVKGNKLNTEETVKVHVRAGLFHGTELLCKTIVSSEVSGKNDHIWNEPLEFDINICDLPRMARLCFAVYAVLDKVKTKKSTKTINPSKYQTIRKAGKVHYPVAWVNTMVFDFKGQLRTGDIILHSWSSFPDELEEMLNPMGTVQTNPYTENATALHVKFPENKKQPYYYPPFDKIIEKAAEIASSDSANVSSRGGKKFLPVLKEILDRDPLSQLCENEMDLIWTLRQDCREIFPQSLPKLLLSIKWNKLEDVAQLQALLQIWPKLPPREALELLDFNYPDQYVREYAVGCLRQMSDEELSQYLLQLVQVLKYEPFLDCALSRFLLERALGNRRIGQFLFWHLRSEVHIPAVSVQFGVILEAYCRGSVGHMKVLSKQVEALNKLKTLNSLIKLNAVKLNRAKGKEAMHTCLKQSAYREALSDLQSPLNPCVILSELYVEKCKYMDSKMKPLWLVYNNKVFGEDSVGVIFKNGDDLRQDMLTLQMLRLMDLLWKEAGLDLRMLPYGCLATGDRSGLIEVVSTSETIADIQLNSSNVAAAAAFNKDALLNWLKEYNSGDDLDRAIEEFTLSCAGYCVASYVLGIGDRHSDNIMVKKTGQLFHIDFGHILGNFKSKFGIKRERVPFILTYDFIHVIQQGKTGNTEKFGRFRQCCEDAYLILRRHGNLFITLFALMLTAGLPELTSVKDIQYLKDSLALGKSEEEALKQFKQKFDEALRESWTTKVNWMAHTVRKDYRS
p110β/p85, sequence (P27986 whole entry partner, species assumed): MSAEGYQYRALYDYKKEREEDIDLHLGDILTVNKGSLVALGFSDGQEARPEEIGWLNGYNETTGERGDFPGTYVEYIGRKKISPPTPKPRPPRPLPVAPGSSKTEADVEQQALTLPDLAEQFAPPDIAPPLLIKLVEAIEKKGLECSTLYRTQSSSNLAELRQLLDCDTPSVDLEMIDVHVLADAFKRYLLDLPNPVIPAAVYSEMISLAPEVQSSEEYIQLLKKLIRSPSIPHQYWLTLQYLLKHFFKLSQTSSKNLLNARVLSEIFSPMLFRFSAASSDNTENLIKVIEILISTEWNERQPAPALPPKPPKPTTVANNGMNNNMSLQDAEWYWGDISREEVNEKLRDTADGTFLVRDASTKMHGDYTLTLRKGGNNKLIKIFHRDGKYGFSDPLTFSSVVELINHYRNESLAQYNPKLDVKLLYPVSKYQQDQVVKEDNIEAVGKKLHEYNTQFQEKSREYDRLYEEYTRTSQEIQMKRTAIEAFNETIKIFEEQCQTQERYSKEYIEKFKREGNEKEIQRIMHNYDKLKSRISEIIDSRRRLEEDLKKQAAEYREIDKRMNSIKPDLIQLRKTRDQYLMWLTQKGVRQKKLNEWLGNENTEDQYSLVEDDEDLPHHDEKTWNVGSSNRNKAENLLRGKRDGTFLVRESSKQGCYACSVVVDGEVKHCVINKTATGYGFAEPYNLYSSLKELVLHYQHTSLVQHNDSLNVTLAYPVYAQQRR
A further series addresses p110δ/p85 (Homo sapiens, UniProt O00329). The description is as above. It is filed as biochemical. Particulars: recombinant enzyme, 100 μM ATP, 1 hr room temperature, average of two experiments. The method in brief: as §1
The next series concerns NZB5. As to the kind of experiment: Cellular growth inhibition (3H-thymidine incorporation). The conditions noted are these: Homo sapiens, five days incubation, 3H-thymidine over the last 6 hrs, read-out: Cell IC50* NZB5. It is filed as cell-based. The method in brief:
(§2)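 Early-passage human lines grown in ITS medium under 5% O2, 500-1,000 cells per well, exposed five days to compound in 10-fold steps up to 20 μM. 3H-thymidine added for the last 6 hrs; IC50 is the concentration halving incorporation, from an exponential fit.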
A general note: Incorporation of labelled thymidine or its analogues reports DNA synthesis.

The test system of another series is NZOV9. The series is described as above. The class given is cell-based. Particulars: Homo sapiens, five days incubation, 3H-thymidine over the last 6 hrs, read-out: Cell IC50* NZOV9. The gist of the method: as §2
The next series relates to PI3K. Particulars: background, literature; cited from earlier work.

p110δ/p85, sequence (O00329 whole entry, species assumed): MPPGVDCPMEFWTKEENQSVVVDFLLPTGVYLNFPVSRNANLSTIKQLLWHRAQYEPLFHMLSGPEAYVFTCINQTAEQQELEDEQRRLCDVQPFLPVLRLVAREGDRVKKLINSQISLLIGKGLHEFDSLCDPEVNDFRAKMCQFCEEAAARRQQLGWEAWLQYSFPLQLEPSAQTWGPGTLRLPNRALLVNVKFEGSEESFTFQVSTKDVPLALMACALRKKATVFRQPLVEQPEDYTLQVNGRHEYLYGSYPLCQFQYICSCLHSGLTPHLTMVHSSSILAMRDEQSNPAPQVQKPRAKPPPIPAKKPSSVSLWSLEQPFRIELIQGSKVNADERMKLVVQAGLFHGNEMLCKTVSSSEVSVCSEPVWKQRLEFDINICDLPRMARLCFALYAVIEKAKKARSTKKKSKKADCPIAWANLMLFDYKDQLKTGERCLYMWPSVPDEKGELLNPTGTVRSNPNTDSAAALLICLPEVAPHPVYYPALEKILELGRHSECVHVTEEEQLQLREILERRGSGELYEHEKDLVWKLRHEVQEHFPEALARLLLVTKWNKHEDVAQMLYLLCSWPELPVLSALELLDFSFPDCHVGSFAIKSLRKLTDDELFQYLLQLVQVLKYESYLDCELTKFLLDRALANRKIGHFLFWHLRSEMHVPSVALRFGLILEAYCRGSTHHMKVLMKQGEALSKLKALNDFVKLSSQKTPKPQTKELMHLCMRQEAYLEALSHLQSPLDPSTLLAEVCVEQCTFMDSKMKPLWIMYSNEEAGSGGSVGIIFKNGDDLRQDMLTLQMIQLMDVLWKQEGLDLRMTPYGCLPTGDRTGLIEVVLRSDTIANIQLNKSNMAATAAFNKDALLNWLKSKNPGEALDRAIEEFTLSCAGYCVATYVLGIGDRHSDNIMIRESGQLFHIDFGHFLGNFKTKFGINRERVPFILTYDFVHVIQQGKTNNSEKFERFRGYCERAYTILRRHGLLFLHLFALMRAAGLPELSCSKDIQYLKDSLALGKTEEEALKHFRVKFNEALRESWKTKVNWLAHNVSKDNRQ
p110δ/p85, sequence (P27986 whole entry partner, species assumed): as the sequence (P27986 whole entry partner, species assumed) above
p110α/p85, sequence (P42336 whole entry): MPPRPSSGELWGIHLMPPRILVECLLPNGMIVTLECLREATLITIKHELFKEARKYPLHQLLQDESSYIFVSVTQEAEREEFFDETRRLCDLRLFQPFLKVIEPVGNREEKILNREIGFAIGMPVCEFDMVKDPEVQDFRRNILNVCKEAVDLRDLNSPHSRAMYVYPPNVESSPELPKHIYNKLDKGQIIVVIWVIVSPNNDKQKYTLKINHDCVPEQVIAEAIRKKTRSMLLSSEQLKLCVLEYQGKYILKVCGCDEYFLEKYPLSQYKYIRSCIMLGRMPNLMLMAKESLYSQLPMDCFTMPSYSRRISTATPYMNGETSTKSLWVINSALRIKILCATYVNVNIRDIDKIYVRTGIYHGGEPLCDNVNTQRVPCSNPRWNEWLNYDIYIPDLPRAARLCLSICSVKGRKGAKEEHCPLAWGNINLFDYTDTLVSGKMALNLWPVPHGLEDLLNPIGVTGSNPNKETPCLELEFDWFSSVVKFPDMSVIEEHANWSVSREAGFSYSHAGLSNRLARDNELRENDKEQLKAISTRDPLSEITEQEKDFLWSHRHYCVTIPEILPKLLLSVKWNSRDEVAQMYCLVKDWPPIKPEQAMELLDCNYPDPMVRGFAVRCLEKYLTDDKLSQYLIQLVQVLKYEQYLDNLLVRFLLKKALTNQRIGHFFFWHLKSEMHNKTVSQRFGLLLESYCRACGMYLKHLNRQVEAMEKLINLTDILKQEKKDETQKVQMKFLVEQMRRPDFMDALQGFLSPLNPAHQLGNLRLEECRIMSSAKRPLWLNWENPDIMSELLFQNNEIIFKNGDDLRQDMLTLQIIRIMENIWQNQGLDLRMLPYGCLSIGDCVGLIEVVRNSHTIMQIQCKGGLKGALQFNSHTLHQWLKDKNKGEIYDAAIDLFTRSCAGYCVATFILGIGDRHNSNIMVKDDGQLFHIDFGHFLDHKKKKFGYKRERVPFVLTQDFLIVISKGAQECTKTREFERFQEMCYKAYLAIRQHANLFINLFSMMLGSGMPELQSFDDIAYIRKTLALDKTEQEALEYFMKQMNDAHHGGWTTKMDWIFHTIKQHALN
p110α/p85, sequence (P27986 whole entry partner): as the sequence (P27986 whole entry partner, species assumed) above

As for `O=c1cc(N2CCOCC2)oc2c(-c3ccccc3)cccc12` [LY294002], in the series on human tumor xenografts, the tolerability entry is reported as “well-tolerated”.

`COc1cccc2c1nc(C(F)F)n2-c1nc(N2CCOCC2)nc(N(C)c2cccnc2)n1` [Example 3, 4-[2-(difluoromethyl)-4-methoxy-1H-benzimidazol-1-yl]-N-methyl-6-(4-morpholinyl)-N-(3-pyridinyl)-1,3,5-triazin-2-amine] returned a melting point of 200 to 201 °C. In addition, the IC50 at p110α/p85 was below 100 nM. For the same compound, the IC50 at p110β/p85 is below 100 nM. For the same compound, the IC50 on p110δ/p85 is below 100 nM. The IC50 in the series with NZB5 fell in the range of 100 to 1000 nM. Further, the IC50 in the series with NZOV9 is below 100 nM.

Turning to `FC(F)c1nc2ccccc2n1-c1nc(N2CCOCC2)nc(N2CCOCC2)n1` [ZSTK474], in the series on PI3K, the PI3K isoform selectivity result is recorded as “non-selective”.

As for `COc1ccncc1Nc1nc(N2CCOCC2)nc(-n2c(C(F)F)nc3c(OC)cccc32)n1` [Example 27, 4-[2-(difluoromethyl)-4-methoxy-1H-benzimidazol-1-yl]-N-(4-methoxy-3-pyridinyl)-6-(4-morpholinyl)-1,3,5-triazin-2-amine], the melting point lay in the range of 239 to 241 °C. The IC50 on p110α/p85 is below 100 nM. Moreover, the IC50 at p110β/p85 was in the range of 100 to 1000 nM. In addition, at p110δ/p85, the IC50 is below 100 nM. Further, the IC50 in the series with NZB5 was in the range of 100 to 1000 nM. For the same compound, the IC50 in the series on NZOV9 was below 100 nM.

`COc1cccc2c1nc(C(F)F)n2-c1nc(Nc2cccnn2)nc(N2CCOCC2)n1` [Example 33, 4-[2-(difluoromethyl)-4-methoxy-1H-benzimidazol-1-yl]-6-(4-morpholinyl)-N-(3-pyridazinyl)-1,3,5-triazin-2-amine]: the melting point lay within 261 to 263 °C. Also, on p110α/p85, the IC50 was below 100 nM. Besides, the IC50 on p110β/p85 lay within 100 to 1000 nM. At p110δ/p85, the IC50 is below 100 nM. For the same compound, in the series with NZB5, the IC50 lay in the range of 100 to 1000 nM. Besides, the IC50 in the series on NZOV9 is below 100 nM.

`COc1cccc2c1nc(C(F)F)n2-c1nc(Nc2ccc(F)nc2)nc(N2CCOCC2)n1` [Example 29, 4-[2-(difluoromethyl)-4-methoxy-1H-benzimidazol-1-yl]-N-(6-fluoro-3-pyridinyl)-6-(4-morpholinyl)-1,3,5-triazin-2-amine] displayed a melting point of 261 to 263 °C. Besides, on p110α/p85, the IC50 is below 100 nM. Also, the IC50 at p110β/p85 is 100 to 1000 nM. The 50% inhibitory concentration (IC50) at p110δ/p85 was below 100 nM. Also, in the series with NZB5, the IC50 was below 100 nM. Besides, in the series with NZOV9, the IC50 was below 100 nM.

Regarding `FC(F)c1nc2ccccc2n1-c1nc(Nc2cccnn2)nc(N2CCOCC2)n1` [Example 23, 4-[2-(difluoromethyl)-1H-benzimidazol-1-yl]-6-(4-morpholinyl)-N-(3-pyridazinyl)-1,3,5-triazin-2-amine], the melting point was in the range of 271 to 273 °C. The IC50 on p110α/p85 is below 100 nM. Also, the IC50 at p110β/p85 lay in the range of 100 to 1000 nM. Also, on p110δ/p85, the IC50 is below 100 nM. The IC50 in the series with NZB5 is 100 to 1000 nM. Also, in the series on NZOV9, the IC50 was in the range of 100 to 1000 nM.

For the compound `COc1cccc2c1nc(C(F)F)n2-c1nc(Nc2cccnc2)nc(N2CCOCC2)n1` [Example 2, 4-[2-(difluoromethyl)-4-methoxy-1H-benzimidazol-1-yl]-6-(4-morpholinyl)-N-(3-pyridinyl)-1,3,5-triazin-2-amine], the melting point lay within 221 to 223 °C. On p110α/p85, the IC50 is below 100 nM. Further, the IC50 at p110β/p85 is 100 to 1000 nM. Moreover, the IC50 on p110δ/p85 was below 100 nM. Also, the IC50 with NZB5 was below 100 nM. Further, the IC50 in the series with NZOV9 is below 100 nM.

Take `Oc1cccc(-c2nc(N3CCOCC3)c3oc4ncccc4c3n2)c1` [PI103]: the PI3K isoform selectivity result in the series on PI3K is “slightly α-selective”.

Take `COc1cccc2c1nc(C(F)F)n2-c1nc(Nc2ccc(N)nc2)nc(N2CCOCC2)n1` [Example 37, N^5-[4-[2-(difluoromethyl)-4-methoxy-1H-benzimidazol-1-yl]-6-(4-morpholinyl)-1,3,5-triazin-2-yl]-2,5-pyridinediamine]: the melting point fell in the range of 267 to 270 °C. For the same compound, the IC50 at p110α/p85 was below 100 nM. In addition, the IC50 on p110β/p85 fell in the range of 100 to 1000 nM. Besides, the IC50 on p110δ/p85 was below 100 nM. Further, the IC50 in the series on NZB5 was below 100 nM. For the same compound, in the series with NZOV9, the IC50 was below 100 nM.

Consider `COc1ccc(Nc2nc(N3CCOCC3)nc(-n3c(C(F)F)nc4c(OC)cccc43)n2)cn1` [Example 28, 4-[2-(difluoromethyl)-4-methoxy-1H-benzimidazol-1-yl]-N-(6-methoxy-3-pyridinyl)-6-(4-morpholinyl)-1,3,5-triazin-2-amine], for which the melting point was 201 to 202 °C. In addition, the IC50 on p110α/p85 was below 100 nM. Also, at p110β/p85, the IC50 is below 100 nM. Besides, the 50% inhibitory concentration (IC50) on p110δ/p85 is below 100 nM. The IC50 with NZB5 is below 100 nM. The IC50 in the series with NZOV9 is below 100 nM.

Compound `CSc1nc2ccccc2n1-c1nc(Nc2cccnc2)nc(N2CCOCC2)n1` [Example 4, 4-[2-(methylsulfanyl)-1H-benzimidazol-1-yl]-6-(4-morpholinyl)-N-(3-pyridinyl)-1,3,5-triazin-2-amine] displayed a melting point of 240 to 241 °C. Besides, the IC50 on p110α/p85 lay within 1000 to 10000 nM. Moreover, the IC50 on p110β/p85 was in the range of 1000 to 10000 nM. Besides, the IC50 on p110δ/p85 lay within 100 to 1000 nM. Further, the IC50 in the series with NZB5 was below 100 nM. The IC50 with NZOV9 was 100 to 1000 nM.

On to `Cn1cc(Nc2nc(N3CCOCC3)nc(-n3c(C(F)F)nc4ccccc43)n2)cn1` [Example 25, 4-[2-(difluoromethyl)-1H-benzimidazol-1-yl]-N-(1-methyl-1H-pyrazol-4-yl)-6-(4-morpholinyl)-1,3,5-triazin-2-amine], for which the melting point is 225 to 226 °C. Further, the IC50 on p110α/p85 is below 100 nM. For the same compound, the IC50 at p110β/p85 fell in the range of 100 to 1000 nM. Besides, at p110δ/p85, the IC50 is below 100 nM. For the same compound, the IC50 with NZB5 lay within 100 to 1000 nM. Moreover, in the series on NZOV9, the IC50 lay within 100 to 1000 nM.

`CN(c1ccccc1)c1nc(N2CCOCC2)nc(-n2c(C(F)F)nc3ccccc32)n1` [Example 7, 4-[2-(difluoromethyl)-1H-benzimidazol-1-yl]-N-methyl-6-(4-morpholinyl)-N-phenyl-1,3,5-triazin-2-amine] gave a melting point of 160 to 162 °C. In addition, the IC50 on p110α/p85 fell in the range of 100 to 1000 nM. Moreover, at p110β/p85, the IC50 was in the range of 100 to 1000 nM. Also, the IC50 at p110δ/p85 fell in the range of 100 to 1000 nM. The IC50 in the series on NZB5 lay within 100 to 1000 nM. Further, the 50% inhibitory concentration (IC50) with NZOV9 lay in the range of 100 to 1000 nM.

In turn, `COc1ccc(Nc2nc(N3CCOCC3)nc(-n3c(C(F)F)nc4c(OC)cccc43)n2)nn1` [Example 34, 4-[2-(difluoromethyl)-4-methoxy-1H-benzimidazol-1-yl]-N-(6-methoxy-3-pyridazinyl)-6-(4-morpholinyl)-1,3,5-triazin-2-amine] had a melting point of 256 to 259 °C. Further, the IC50 at p110α/p85 was below 100 nM. In addition, the IC50 at p110β/p85 was 100 to 1000 nM. The IC50 at p110δ/p85 was below 100 nM. Further, the IC50 with NZB5 lay in the range of 100 to 1000 nM. Further, the IC50 in the series with NZOV9 lay in the range of 100 to 1000 nM.

In turn, `FC(F)c1nc2ccccc2n1-c1nc(-c2cccnc2)nc(N2CCOCC2)n1` [Example 47, 2-(difluoromethyl)-1-[4-(4-morpholinyl)-6-(3-pyridinyl)-1,3,5-triazin-2-yl]-1H-benzimidazole] yielded a melting point of 199 to 201 °C. In addition, the IC50 on p110α/p85 is below 100 nM. Further, the IC50 on p110β/p85 lay in the range of 100 to 1000 nM. Besides, at p110δ/p85, the IC50 was below 100 nM. For the same compound, in the series on NZB5, the IC50 lay in the range of 100 to 1000 nM. The half-maximal inhibitory concentration (IC50) in the series with NZOV9 was in the range of 100 to 1000 nM.

For `Cc1cc(C(C)Nc2ccccc2)c2nc(N3CCOCC3)cc(=O)n2c1` (centres unmarked) [TGX221], in the series with PI3K, the PI3K isoform selectivity entry is recorded as “β-selective”.

`FC(F)c1nc2ccccc2n1-c1nc(Nc2cccnc2)nc(N2CCOCC2)n1` [Example 1, 4-[2-(difluoromethyl)-1H-benzimidazol-1-yl]-6-(4-morpholinyl)-N-(3-pyridinyl)-1,3,5-triazin-2-amine] had a melting point of 228 to 230 °C. Besides, the IC50 at p110α/p85 was below 100 nM. The IC50 at p110β/p85 was below 100 nM. For the same compound, on p110δ/p85, the IC50 was below 100 nM. Further, the IC50 in the series on NZB5 lay in the range of 100 to 1000 nM. In the series with NZOV9, the concentration for half-maximal inhibition (IC50) was in the range of 100 to 1000 nM.

The compound `FC(F)c1nc2ccccc2n1-c1nc(Nc2ccccc2)nc(N2CCOCC2)n1` [Example 6, 4-[2-(difluoromethyl)-1H-benzimidazol-1-yl]-6-(4-morpholinyl)-N-phenyl-1,3,5-triazin-2-amine] gave a melting point of 171 to 174 °C. Besides, the IC50 on p110α/p85 is 100 to 1000 nM. Besides, on p110β/p85, the IC50 was in the range of 100 to 1000 nM. For the same compound, on p110δ/p85, the IC50 is below 100 nM. For the same compound, the IC50 in the series on NZB5 lay within 100 to 1000 nM. Besides, the IC50 with NZOV9 lay in the range of 100 to 1000 nM.

Regarding `Cc1ccccc1-n1c(Cn2cnc3c(N)ncnc32)nc2cccc(C)c2c1=O` [IC87114], the PI3K isoform selectivity entry in the series with PI3K is reported as “δ-selective”.

As a reminder, the IC50 is the point on the concentration scale where inhibition reaches its midpoint. For orientation: melting point means the temperature, or range, at which the solid turns liquid.
